Experimental data as given in patent US20080280860A1, “Use of Vitamin D Compounds to Treat Endometriosis” (BioXell S.p.A., priority 2005, published 2008).

Experiments:
[1] = tested on: Eutopic endometrium stromal cells; assay: Proliferation of endometrial stromal cells in vitro (CyQuant), eutopic; assay type: cell-based; details: 1 uM-0.1 nM, 48-96 hours; FIG. 2A
Protocol: (§1) Tissue was gently minced into small pieces (1 to 2 mm^3) and incubated at 37° C. for 1 h with 0.1% type A collagenase. At the end of the incubation, single stromal cells were separated from large clumps of epithelium by a 10 min. period of differential sedimentation at unity gravity. The top 8 ml of medium, containing predominantly stromal cells, were then slowly removed and the cells were collected by centrifugation. The stromal-enriched fraction was washed twice in culture medium and allowed to adhere selectively to tissue culture dishes for 15 min.
(§2) Thereafter, nonattached epithelial cells still present were removed and a purified stromal preparation was obtained on the surface of the culture dishes.
(§3) The cells were maintained in DMEM supplemented with 10% Fetal Bovine Serum (SIGMA) and 100 U/ml penicillin, 100 ug/ml streptomycin (GIBCO cat. no. 15140-122).
(§4) When the stromal cells were grown to confluence, were washed in PBS and then trypsinized using 1× trypsin/EDTA solution (PromoCell cat. no. C-41002). […] The proliferation was determined with CyQuant Cell Proliferation Assay (Molecular Probe cat. no. C7026). […]
(§5) The fluorescence was determined using a fluorescence microplate reader with filters appropriate for ˜480 nm excitation and ˜520 nm emission.

[2] = tested on: Ectopic endometrium stromal cells; assay: Proliferation of endometrial stromal cells in vitro (CyQuant), ectopic; assay type: cell-based; details: 1 uM-0.1 nM, 48-96 hours; FIG. 2B; may be dose dependent
Protocol: as §1, §2, §3, §4, §5

endometriotic cells = assay: Cell adhesion of endometrial stromal cells from treated animals; assay type: in vivo; details: animals treated 100 ug/kg orally once a day for two days; 5 subjects per group; FIG. 9
Protocol: Paired animals were treated wth Compound A (100 ug/kg) orally once a day, for two days. The animals were then sacrificed and uterus horns were removed. Myometrium was removed by scraping with a scalpel blade and remaining endometrial tissue was reduced to small fragments with scissors.
Tissue was minced into small pieces (1 to 2 mm^3) and incubated at 37° C. for 1 h with 0.1% type A collagenase. At the end of the incubation, single stromal cells were separated from large dumps of epithelium by a 10 min. period of differential sedimentation at unity gravity. The top 8 ml of medium, containing predominantly stromal cells, were then slowly removed and the cells were collected by centrifugation. […]
Polystyrene 96-well plates (Costar) were coated with 50 ul/well of 8 mg/ml extracellular matrix (ECM) (Sigma, USA), and left uncovered in a laminar flow hood overnight to allow evaporation. […] The sample fluorescence in each well was measured using a fluorescence microplate reader with filters appropriate for 480 nm excitation and 520 nm emission maxima. Results were expressed as the percentage of total cells assuming that the adhesion of cells in the control was 100%. The percentage of adhesion was determined using the formula: (Abs after being rinsed with PBS/Abs no rinse)×100%. […]

[3] = tested on: human stromal endometrial cells; assay: Cell chemotaxis assay (modified Boyden chamber); assay type: cell-based; details: FIG. 10
Protocol: as §1, with “Human stromal cell preparation: tissue was gently” for “Tissue was gently”, “from large dumps of epithelium” for “from large clumps of epithelium”, “15 min. Thereafter, non-attached epithelial cells still present were removed and a purified stromal preparation was obtained on the surface of the culture dishes.” for “15 min.”
Endometrial stromal cells migration was evaluated by means of chemotaxis experiments in a 48-well modified Boyden chamber. With the migration assay, we assessed the ability of the cells to migrate toward a chemo-attractant on a two-dimensional substrate (in our case, collagen type IV). […] The cells that had migrated to the lower side of the filter were stained with Diff-Quick stain (VWR Scientific Products, Bridgeport, N.J.), and 5-8 unit fields per filter were counted at 160× magnification using a Zeiss microscope. […]

peritoneal macrophages = assay: ELISA quantification of cytokine produced by peritoneal macrophages; assay type: in vivo, mice
Protocol: Peritoneal cells were recovered two weeks after unterus transfer in cold PBS, 2 mM EDTA, by peritoneal lavage of treated (Compound A at 100 ug/kg) and untreated (vehicle only) animals prepared according to the procedure described previously in Examples 1 to 3 (pool of 5 mice per group). Peritoneal macrophages were counted directly after collection using Turk reagent, washed, and placed into culture with RPMI/glutamax 5% FC I, pen/strep, Na pyruvate. After 2 hr at 37° C. the non adherent cells were removed and the macrophages were cultured for a further 48 hr. The supernatant was harvested and cytokines (TNF-alpha, IL1-alpha, IL1-beta, IL6, MIP-2 and VEGF) were quantified using a specific ELISA (R&D System DuoSet). All ELISA determinations were performed in duplicate on the undiluted sample. The total cells number plated was assessed by CyQuant test and values of protein production were normalized to cell number.

Maximum tolerated dose = assay type: in vivo, Balb/c mice

C=C1/C(=C\C=C2/CCC[C@]3(C)C([C@@H](C)C/C=C/C(O)(CC)CC)=CC[C@@H]23)C[C@@H](O)C[C@@H]1F [Compound A, 1-alpha-fluoro-25-hydroxy-16,23E-diene-26,27-bishomo-20-epi-cholecalciferol]
cell proliferation, Eutopic endometrium [1]: reduction in cell proliferation
cell proliferation, Ectopic endometrium [2]: reduction in cell proliferation
adhesion of endometriotic cells (endometriotic cells): dramatically reduce the adhesion
reduction in migration with estrogen stimulation ([3]; 1 uM pretreatment 30 min, then β-Estradiol 24 h): approximately 50%
basal condition of migration ([3]; 1 uM, without estrogen stimulation): No effect
inflammatory cytokine and VEGF production (TNF-alpha, IL1-alpha, IL1-beta, IL6, MIP-2, VEGF) (peritoneal macrophages; 100 ug/kg versus vehicle, macrophages recovered two weeks after uterus transfer, cultured 48 hr, FIG. 11): dramatically reduced
cytokine production after re-activation in vitro with LPS (peritoneal macrophages; macrophages of treated animals, data not shown): still capable of producing the same cytokines
MTD (Maximum tolerated dose; Balb/c, mouse, in vivo, mice, ip, above it the compound becomes hypercalcemic): 0.1 mg/kg
associated toxicity compared with the other compounds tested (Maximum tolerated dose; Example 2): lower associated toxicity
